In ChEMBL document CHEMBL4339205, “Design, synthesis, and biological evaluation of novel pyrrolo[1,2-a]pyrazine derivatives” (Bioorg Med Chem Lett, 2019) one finds Activity, IC50 and inhibition data, which are given here for 13 compounds.

Active and inactive are the calls of the source. The rule behind the calls is not given here.

Experiment [1] deals with U-937. The experiment can be described thus: Cytotoxicity against human U937 cells assessed as reduction in cell viability at 10 uM measured after 3 days by CCK8 assay. The experiment is classed as functional, cell-based. A general note: Formazan colour is commonly taken as a measure of viable cells.
The test system of experiment [2] is U-937. The experiment can be described thus: Cytotoxicity against human U937 cells assessed as reduction in cell viability measured after 3 days by CCK8 assay. As to conditions: U-937, 72 h. Type of experiment: functional, cell-based.
In experiment [3] the test system is U-937. Nature of the experiment: Induction of apoptosis in human U937 cells assessed as live cells at 0.3 uM measured after 1 day by muse Annexin V/dead cell reagent staining-based flow cytometry (reference value: 95.05 %). Type of experiment: functional. For orientation: A flow cytometer gives signals particle by particle.
Experiment [4] relates to U-937. The experiment can be described thus: Induction of apoptosis in human U937 cells assessed as early apoptotic cells at 0.3 uM measured after 1 day by muse Annexin V/dead cell reagent staining-based flow cytometry (reference value: 0.7 %). Type of experiment: functional.
Experiment [5] deals with U-937. The experiment can be described thus: Induction of apoptosis in human U937 cells assessed as late apoptotic cells at 0.3 uM measured after 1 day by muse Annexin V/dead cell reagent staining-based flow cytometry (reference value: 1.75 %). Type of experiment: functional.
Experiment [6] deals with U-937. Nature of the experiment: Induction of apoptosis in human U937 cells assessed as necrotic cells at 0.3 uM measured after 1 day by muse Annexin V/dead cell reagent staining-based flow cytometry (reference value: 2.5 %). Type of experiment: functional.
For experiment [7], the system named is U-937. The experiment can be described thus: Induction of apoptosis in human U937 cells assessed as live cells at 0.3 uM measured after 2 days by muse Annexin V/dead cell reagent staining-based flow cytometry (reference value: 95.05 %). Type of experiment: functional.
Experiment [8] deals with U-937. Nature of the experiment: Induction of apoptosis in human U937 cells assessed as early apoptotic cells at 0.3 uM measured after 2 days by muse Annexin V/dead cell reagent staining-based flow cytometry (reference value: 0.7 %). The experiment is classed as functional.
In experiment [9] the test system is U-937. Nature of the experiment: Induction of apoptosis in human U937 cells assessed as late apoptotic cells at 0.3 uM measured after 2 days by muse Annexin V/dead cell reagent staining-based flow cytometry (reference value: 1.75 %). Type of experiment: functional.
For experiment [10], the system named is U-937. The experiment can be described thus: Induction of apoptosis in human U937 cells assessed as necrotic cells at 0.3 uM measured after 2 days by muse Annexin V/dead cell reagent staining-based flow cytometry (reference value: 2.5 %). The experiment is classed as functional.
For experiment [11], the system named is U-937. The experiment can be described thus: Induction of apoptosis in human U937 cells assessed as live cells at 0.3 uM measured after 3 days by muse Annexin V/dead cell reagent staining-based flow cytometry (reference value: 95.05 %). The experiment is classed as functional.
Experiment [12] deals with U-937. The experiment can be described thus: Induction of apoptosis in human U937 cells assessed as early apoptotic cells at 0.3 uM measured after 3 days by muse Annexin V/dead cell reagent staining-based flow cytometry (reference value: 0.7 %). Type of experiment: functional.
The subject of experiment [13] is U-937. Nature of the experiment: Induction of apoptosis in human U937 cells assessed as late apoptotic cells at 0.3 uM measured after 3 days by muse Annexin V/dead cell reagent staining-based flow cytometry (reference value: 1.75 %). Type of experiment: functional.
The test system of experiment [14] is U-937. The experiment can be described thus: Induction of apoptosis in human U937 cells assessed as necrotic cells at 0.3 uM measured after 3 days by muse Annexin V/dead cell reagent staining-based flow cytometry (reference value: 2.5 %). The experiment is classed as functional.
In experiment [15] the test system is U-937. Nature of the experiment: Induction of apoptosis in human U937 cells assessed as increase in caspase-3/7 activity up to 1 uM after 24 hrs. The experiment is classed as functional, cell-based.
Experiment [16] deals with T1, Protein farnesyltransferase (Homo sapiens) (UniProt P49354+P49356). The experiment can be described thus: Inhibition of FTase (unknown origin). The experiment is classed as protein-complex assay.
In experiment [17] the target is T1, Protein farnesyltransferase (Homo sapiens). Nature of the experiment: Inhibition of FTase in human U937 cells assessed as reduction in p38 MAPK phosphorylation at 0.3 uM measured after 1 to 3 hrs y Western blot analysis. Type of experiment: cell-based. On the technique in general: In western blotting, separated proteins are transferred to a membrane and probed.

Experiment [18] deals with c-Jun N-terminal kinase, JNK (Homo sapiens) (UniProt P45983+P53779+P45984). Nature of the experiment: Inhibition of JNK phosphorylation in human U937 cells at 0.3 uM measured after 1 to 3 hrs y Western blot analysis. The experiment is classed as cell-based.
The species entered for a further experiment is Homo sapiens. The experiment can be described thus: Inhibition of ERK phosphorylation in human U937 cells at 0.3 uM measured after 1 to 3 hrs y Western blot analysis. The experiment is classed as cell-based.
The next experiment deals with CCD-18Co. The experiment can be described thus: Cytotoxicity against human CCD-18Co cells assessed as reduction in cell viability measured after 3 days by CCK8 assay. Type of experiment: cell-based. As to conditions: 72 h.

As a reminder, the IC50 is the point on the concentration scale where inhibition reaches its midpoint.

Turning to `O=C(/C=C/c1ccccc1I)c1ccn2cc(-c3ccccc3)ncc12`, the result with U-937 [1] was inactive.
Turning to `COc1ccccc1/C=C/C(=O)c1ccn2cc(-c3ccccc3)ncc12`, in the experiment with U-937 [1], the result was Active. Moreover, the IC50 with U-937 [2] was determined as 0.77 µM.
Turning to `O=C(/C=C/c1ccccc1Br)c1ccn2cc(-c3ccccc3)ncc12`, the result in the experiment with U-937 [1] was inactive.
In the case of `O=C(/C=C/c1cccnc1)c1ccn2cc(-c3ccccc3)ncc12`, in the experiment with U-937 [1], the outcome was Active. Further, the IC50 in the experiment on U-937 [2] came out at 0.63 µM.
Taken in the same sequence, the figures for `O=C(/C=C/c1ccncc1)c1ccn2cc(-c3ccccc3)ncc12` were “Active” and 0.69 µM.
Consider `COc1ccc(/C=C/C(=O)c2ccn3cc(-c4ccccc4)ncc23)cc1`, for which the outcome in the experiment with U-937 [1] was Active.
Same read-out and setting: then `O=C(/C=C/c1ccccc1Cl)c1ccn2cc(-c3ccccc3)ncc12`, with “inactive”; and `COc1cccc(/C=C/C(=O)c2ccn3cc(-c4ccccc4)ncc23)c1`, with “Active”; and `O=C(/C=C/c1ccccc1F)c1ccn2cc(-c3ccccc3)ncc12`, with “inactive”.
Regarding `O=C(/C=C/c1ccccn1)c1ccn2cc(-c3ccccc3)ncc12`, the outcome with U-937 [1] was Active. Moreover, the 50% inhibitory concentration (IC50) in the experiment with U-937 [2] worked out at 0.88 µM.
For the compound `COc1ccc(OC)c(/C=C/C(=O)c2ccn3cc(-c4ccccc4)ncc23)c1`, the result in the experiment with U-937 [1] was inactive.
On to `COc1ccc(/C=C/C(=O)c2ccn3cc(-c4ccccc4)ncc23)c(OC)c1`, for which the IC50 in the experiment on U-937 [2] came to 0.18 µM; in the experiment with CCD-18Co, 7.44 µM. Besides, the Activity was determined as 84.45% in the experiment with U-937 [3]; 2.3% in the experiment on U-937 [4]; 4.85% in the experiment on U-937 [5]; 8.4% in the experiment on U-937 [6]; 88.55% in the experiment on U-937 [7]; 2.15% with U-937 [8]. For the same compound, the Activity with U-937 [9] is recorded as 4.2%; in the experiment on U-937 [10] it was 5.1%; in the experiment on U-937 [11], 83.15%; in the experiment on U-937 [12], 5.95%; in the experiment with U-937 [13] it was 5.7%; in the experiment on U-937 [14], 5.2%. In addition, the result in the experiment with U-937 [15] was Active. The inhibition result in [16] and in experiment [17] was “Active” in each case. Also, the inhibition result (in experiment [18]; in the experiment listed under Homo sapiens) was “inactive” throughout.
On to `Nc1ccn([C@@H]2O[C@H](CO)[C@@H](O)[C@@H]2O)c(=O)n1` [CYTARABINE], for which the outcome in the experiment with U-937 [1] was Active. Moreover, in the experiment on U-937 [2], the IC50 came to 0.002 µM. Also, the Activity with U-937 [3] was 79.05%; with U-937 [4], 4.2%; with U-937 [5], 5.55%; in the experiment with U-937 [6] it was 11.2%; with U-937 [7] it was 83.2%; in the experiment with U-937 [8] it was 2.65%. Besides, the Activity in the experiment on U-937 [9] worked out at 5.35%; in the experiment on U-937 [10], 8.8%; in the experiment on U-937 [11], 69.7%; with U-937 [12] it was 8.7%; with U-937 [13] it was 10.55%; in the experiment on U-937 [14], 11.05%.
